# Laboratory results taken from article PMC12300041, “Tricyclic Isatin Derivatives as Anti-Inflammatory Compounds with High Kinase Binding Affinity” (Molecules, 2025).
# Columns and labels:
# Test in all cases: KINOMEscan
# Type in all cases: binding
# AAK1 = biological target: T1, AAK1 (Homo sapiens, UniProt Q2M2I8)
# T1 construct: purchased Eurofins DiscoverX KINOMEscan
# Method in brief: (§1)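 Active-site competition format. Unbound kinase fraction measured by affinity-ligand capture plus qPCR after 1 h at RT. Kd from 12-point half-log titration, maximum 33 μM.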
# ABL1 (E255K)-P = biological target: T2, ABL1 (E255K)-P (Homo sapiens, UniProt P00519, E255K)
# T2 construct: purchased Eurofins DiscoverX KINOMEscan
# Method in brief: as §1
# ACVR2A = biological target: T3, ACVR2A (Homo sapiens, UniProt P27037)
# T3 construct: purchased Eurofins DiscoverX KINOMEscan
# Method in brief: (§2)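 A 12-point half-log dilution series topping at 33 μM defined each Kd. The kinase fraction escaping compound binding over 1 h at room temperature was trapped by an immobilized affinity ligand and measured by quantitative PCR.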
# ALK (C1156Y) = biological target: T4, ALK (C1156Y) (Homo sapiens, UniProt Q9UM73, C1156Y)
# T4 construct: purchased Eurofins DiscoverX KINOMEscan
# Method in brief: as §1
# BLK = biological target: T5, BLK (Homo sapiens, UniProt P51451)
# T5 construct: purchased Eurofins DiscoverX KINOMEscan
# Method in brief: as §1
# CAMK2B = biological target: T6, CAMK2B (Homo sapiens, UniProt Q13554)
# T6 construct: purchased Eurofins DiscoverX KINOMEscan
# Method in brief: as §1
# CAMKK1 = biological target: T7, CAMKK1 (Homo sapiens, UniProt Q8N5S9)
# T7 construct: purchased Eurofins DiscoverX KINOMEscan
# Method in brief: as §1
# CSNK1G1 = biological target: T8, CSNK1G1 (Homo sapiens, UniProt Q9HCP0)
# T8 construct: purchased Eurofins DiscoverX KINOMEscan
# Method in brief: as §1
# CSNK1G3 = biological target: T9, CSNK1G3 (Homo sapiens, UniProt Q9Y6M4)
# T9 construct: purchased Eurofins DiscoverX KINOMEscan
# Method in brief: as §1
# DDR1 = biological target: T10, DDR1 (Homo sapiens, UniProt Q08345)
# T10 construct: purchased Eurofins DiscoverX KINOMEscan
# Method in brief: as §2
# DRAK1 = biological target: T11, DRAK1 (Homo sapiens, UniProt Q9UEE5)
# T11 construct: purchased Eurofins DiscoverX KINOMEscan
# Method in brief: as §1
# EGFR (G719S) = biological target: T12, EGFR (G719S) (Homo sapiens, UniProt P00533, G719S)
# T12 construct: purchased Eurofins DiscoverX KINOMEscan
# Method in brief: as §1
# EPHB6 = biological target: T13, EPHB6 (Homo sapiens, UniProt O15197)
# T13 construct: purchased Eurofins DiscoverX KINOMEscan
# Method in brief: as §1
# ERK8 = biological target: T14, ERK8 (Homo sapiens, UniProt Q8TD08)
# T14 construct: purchased Eurofins DiscoverX KINOMEscan
# Method in brief: as §2
# FAK = biological target: T15, FAK (Homo sapiens, UniProt Q05397)
# T15 construct: purchased Eurofins DiscoverX KINOMEscan
# Method in brief: as §1
# FLT3 (D835H) = biological target: T16, FLT3 (D835H) (Homo sapiens, UniProt P36888, D835H)
# T16 construct: purchased Eurofins DiscoverX KINOMEscan
# Method in brief: as §1
# GRK3 = biological target: T17, GRK3 (Homo sapiens, UniProt P35626)
# T17 construct: purchased Eurofins DiscoverX KINOMEscan
# Method in brief: as §1
# GRK7 = biological target: T18, GRK7 (Homo sapiens, UniProt Q8WTQ7)
# T18 construct: purchased Eurofins DiscoverX KINOMEscan
# Method in brief: as §1
# IKK-ε = biological target: T19, IKK-ε (Homo sapiens, UniProt Q14164)
# T19 construct: purchased Eurofins DiscoverX KINOMEscan
# Method in brief: as §2
# JAK3 (JH1domain-cat.) = biological target: T20, JAK3 (JH1domain-cat.) (Homo sapiens, UniProt P52333)
# T20 construct: JAK3 (JH1domain-cat.); purchased Eurofins DiscoverX KINOMEscan
# Method in brief: as §1
# MAP3K19 = biological target: T21, MAP3K19 (Homo sapiens, UniProt Q56UN5)
# T21 construct: purchased Eurofins DiscoverX KINOMEscan
# Method in brief: as §1
# MAP4K5 = biological target: T22, MAP4K5 (Homo sapiens, UniProt Q9Y4K4)
# T22 construct: purchased Eurofins DiscoverX KINOMEscan
# Method in brief: as §1
# MINK = biological target: T23, MINK (Homo sapiens, UniProt Q8N4C8)
# T23 construct: purchased Eurofins DiscoverX KINOMEscan
# Method in brief: as §2
# MST1 = biological target: T24, MST1 (Homo sapiens, UniProt Q13043)
# T24 construct: purchased Eurofins DiscoverX KINOMEscan
# Method in brief: as §1
# OSR1 = biological target: T25, OSR1 (Homo sapiens, UniProt O95747)
# T25 construct: purchased Eurofins DiscoverX KINOMEscan
# Method in brief: as §1
# PIP5K2C = biological target: T26, PIP5K2C (Homo sapiens, UniProt Q8TBX8)
# T26 construct: purchased Eurofins DiscoverX KINOMEscan
# Method in brief: as §2
# PLK3 = biological target: T27, PLK3 (Homo sapiens, UniProt Q9H4B4)
# T27 construct: purchased Eurofins DiscoverX KINOMEscan
# Method in brief: as §2
# PRKCD = biological target: T28, PRKCD (Homo sapiens, UniProt Q05655)
# T28 construct: purchased Eurofins DiscoverX KINOMEscan
# Method in brief: as §1
# PRKG1 = biological target: T29, PRKG1 (Homo sapiens, UniProt Q13976)
# T29 construct: purchased Eurofins DiscoverX KINOMEscan
# Method in brief: as §2
# RIPK5 = biological target: T30, RIPK5 (Homo sapiens, UniProt Q6XUX3)
# T30 construct: purchased Eurofins DiscoverX KINOMEscan
# Method in brief: as §1
# S6K1 = biological target: T31, S6K1 (Homo sapiens, UniProt P23443)
# T31 construct: purchased Eurofins DiscoverX KINOMEscan
# Method in brief: as §1
# SIK = biological target: T32, SIK (Homo sapiens, UniProt P57059)
# T32 construct: purchased Eurofins DiscoverX KINOMEscan
# Method in brief: as §2
# SIK2 = biological target: T33, SIK2 (Homo sapiens, UniProt Q9H0K1)
# T33 construct: purchased Eurofins DiscoverX KINOMEscan
# Method in brief: as §1
# SLK = biological target: T34, SLK (Homo sapiens, UniProt Q9H2G2)
# T34 construct: purchased Eurofins DiscoverX KINOMEscan
# Method in brief: as §1
# SRPK3 = biological target: T35, SRPK3 (Homo sapiens, UniProt Q9UPE1)
# T35 construct: purchased Eurofins DiscoverX KINOMEscan
# Method in brief: as §1
# SYK = biological target: T36, SYK (Homo sapiens, UniProt P43405)
# T36 construct: purchased Eurofins DiscoverX KINOMEscan
# Method in brief: as §2
# TAOK1 = biological target: T37, TAOK1 (Homo sapiens, UniProt Q7L7X3)
# T37 construct: purchased Eurofins DiscoverX KINOMEscan
# Method in brief: as §1
# TRKB = biological target: T38, TRKB (Homo sapiens, UniProt Q16620)
# T38 construct: purchased Eurofins DiscoverX KINOMEscan
# Method in brief: as §1
# TRPM6 = biological target: T39, TRPM6 (Homo sapiens, UniProt Q9BX84)
# T39 construct: purchased Eurofins DiscoverX KINOMEscan
# Method in brief: as §1
# p38-σ = biological target: T40, p38-σ (Homo sapiens, UniProt O15264)
# T40 construct: purchased Eurofins DiscoverX KINOMEscan
# Method in brief: as §1
# T29 sequence (Q13976 whole entry): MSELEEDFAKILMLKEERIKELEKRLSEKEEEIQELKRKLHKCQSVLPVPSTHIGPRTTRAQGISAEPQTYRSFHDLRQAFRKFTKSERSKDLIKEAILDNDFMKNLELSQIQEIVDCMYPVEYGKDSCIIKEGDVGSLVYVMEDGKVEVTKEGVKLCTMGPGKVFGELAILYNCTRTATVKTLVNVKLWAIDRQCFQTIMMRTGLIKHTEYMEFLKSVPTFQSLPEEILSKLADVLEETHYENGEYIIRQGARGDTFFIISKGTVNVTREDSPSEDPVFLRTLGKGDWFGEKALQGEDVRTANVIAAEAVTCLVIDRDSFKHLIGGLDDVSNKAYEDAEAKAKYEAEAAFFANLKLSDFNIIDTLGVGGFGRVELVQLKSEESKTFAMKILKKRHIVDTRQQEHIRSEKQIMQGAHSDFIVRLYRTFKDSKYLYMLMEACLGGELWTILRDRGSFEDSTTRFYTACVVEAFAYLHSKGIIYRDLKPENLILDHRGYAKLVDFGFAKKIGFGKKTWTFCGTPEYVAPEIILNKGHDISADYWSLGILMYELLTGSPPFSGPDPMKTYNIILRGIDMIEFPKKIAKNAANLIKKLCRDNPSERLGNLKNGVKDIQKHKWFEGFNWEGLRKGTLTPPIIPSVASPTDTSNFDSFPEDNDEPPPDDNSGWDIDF
# T23 sequence (Q8N4C8 whole entry): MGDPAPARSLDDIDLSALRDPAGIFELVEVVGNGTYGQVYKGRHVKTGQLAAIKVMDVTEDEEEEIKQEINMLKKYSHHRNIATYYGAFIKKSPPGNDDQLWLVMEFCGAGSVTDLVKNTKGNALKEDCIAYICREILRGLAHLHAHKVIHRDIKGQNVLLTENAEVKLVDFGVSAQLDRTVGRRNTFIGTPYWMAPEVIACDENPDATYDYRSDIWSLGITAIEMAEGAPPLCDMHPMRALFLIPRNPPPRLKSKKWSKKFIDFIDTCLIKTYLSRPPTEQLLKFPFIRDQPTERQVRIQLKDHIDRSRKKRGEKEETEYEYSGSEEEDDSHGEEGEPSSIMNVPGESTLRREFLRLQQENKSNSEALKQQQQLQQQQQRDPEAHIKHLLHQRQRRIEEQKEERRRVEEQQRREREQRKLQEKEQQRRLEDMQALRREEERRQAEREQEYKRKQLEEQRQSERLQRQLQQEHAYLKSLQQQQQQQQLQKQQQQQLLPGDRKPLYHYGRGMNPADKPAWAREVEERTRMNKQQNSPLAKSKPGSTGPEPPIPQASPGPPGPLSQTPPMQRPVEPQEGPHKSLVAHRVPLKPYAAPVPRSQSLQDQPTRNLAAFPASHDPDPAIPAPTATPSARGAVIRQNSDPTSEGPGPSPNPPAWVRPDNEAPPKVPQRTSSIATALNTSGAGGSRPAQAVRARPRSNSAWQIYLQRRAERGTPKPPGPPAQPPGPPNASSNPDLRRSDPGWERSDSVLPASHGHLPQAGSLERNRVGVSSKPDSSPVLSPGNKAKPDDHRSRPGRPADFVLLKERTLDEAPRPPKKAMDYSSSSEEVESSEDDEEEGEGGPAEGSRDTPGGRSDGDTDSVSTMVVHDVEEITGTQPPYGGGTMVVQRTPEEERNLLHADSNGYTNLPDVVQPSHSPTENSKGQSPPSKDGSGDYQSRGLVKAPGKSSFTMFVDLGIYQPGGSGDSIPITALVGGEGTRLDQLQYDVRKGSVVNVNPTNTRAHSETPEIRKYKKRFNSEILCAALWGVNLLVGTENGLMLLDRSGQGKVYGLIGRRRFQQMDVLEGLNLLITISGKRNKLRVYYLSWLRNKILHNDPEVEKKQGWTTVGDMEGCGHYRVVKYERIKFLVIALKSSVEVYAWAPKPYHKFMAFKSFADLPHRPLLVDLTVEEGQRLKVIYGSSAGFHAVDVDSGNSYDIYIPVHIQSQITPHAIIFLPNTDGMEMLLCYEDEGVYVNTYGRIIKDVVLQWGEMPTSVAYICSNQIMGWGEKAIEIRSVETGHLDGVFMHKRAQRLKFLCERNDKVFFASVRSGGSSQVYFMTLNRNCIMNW
# T22 sequence (Q9Y4K4 whole entry): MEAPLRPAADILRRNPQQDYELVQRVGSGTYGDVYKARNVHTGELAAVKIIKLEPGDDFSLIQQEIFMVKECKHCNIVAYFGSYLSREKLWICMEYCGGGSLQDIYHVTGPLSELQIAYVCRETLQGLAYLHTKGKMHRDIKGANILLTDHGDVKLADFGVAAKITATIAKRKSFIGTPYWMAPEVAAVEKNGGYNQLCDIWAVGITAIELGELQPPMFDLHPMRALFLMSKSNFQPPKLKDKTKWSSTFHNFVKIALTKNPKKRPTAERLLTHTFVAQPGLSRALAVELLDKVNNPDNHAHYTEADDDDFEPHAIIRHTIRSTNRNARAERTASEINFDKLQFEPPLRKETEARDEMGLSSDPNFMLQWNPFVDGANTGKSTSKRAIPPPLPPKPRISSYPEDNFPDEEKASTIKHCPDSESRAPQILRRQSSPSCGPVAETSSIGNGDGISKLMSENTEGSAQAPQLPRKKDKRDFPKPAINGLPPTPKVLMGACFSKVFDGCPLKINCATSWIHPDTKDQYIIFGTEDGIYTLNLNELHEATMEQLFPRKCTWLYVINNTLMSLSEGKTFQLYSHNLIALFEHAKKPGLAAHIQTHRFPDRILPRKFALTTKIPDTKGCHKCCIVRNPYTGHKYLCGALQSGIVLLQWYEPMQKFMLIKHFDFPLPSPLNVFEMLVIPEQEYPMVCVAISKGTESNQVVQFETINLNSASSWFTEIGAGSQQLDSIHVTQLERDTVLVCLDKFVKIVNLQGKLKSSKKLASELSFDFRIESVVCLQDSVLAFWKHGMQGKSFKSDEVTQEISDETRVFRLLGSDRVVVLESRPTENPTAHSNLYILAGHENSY
# T20 sequence (P52333 813-1124 limits assumed): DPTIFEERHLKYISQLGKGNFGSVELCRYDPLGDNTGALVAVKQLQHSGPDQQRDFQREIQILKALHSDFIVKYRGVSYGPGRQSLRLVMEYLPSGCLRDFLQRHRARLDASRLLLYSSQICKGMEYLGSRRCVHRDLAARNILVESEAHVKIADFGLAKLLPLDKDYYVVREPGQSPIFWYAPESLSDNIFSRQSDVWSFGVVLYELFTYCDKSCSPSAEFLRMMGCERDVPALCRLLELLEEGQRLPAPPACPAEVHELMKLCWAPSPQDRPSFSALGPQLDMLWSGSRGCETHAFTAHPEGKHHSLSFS
# T34 sequence (Q9H2G2 whole entry): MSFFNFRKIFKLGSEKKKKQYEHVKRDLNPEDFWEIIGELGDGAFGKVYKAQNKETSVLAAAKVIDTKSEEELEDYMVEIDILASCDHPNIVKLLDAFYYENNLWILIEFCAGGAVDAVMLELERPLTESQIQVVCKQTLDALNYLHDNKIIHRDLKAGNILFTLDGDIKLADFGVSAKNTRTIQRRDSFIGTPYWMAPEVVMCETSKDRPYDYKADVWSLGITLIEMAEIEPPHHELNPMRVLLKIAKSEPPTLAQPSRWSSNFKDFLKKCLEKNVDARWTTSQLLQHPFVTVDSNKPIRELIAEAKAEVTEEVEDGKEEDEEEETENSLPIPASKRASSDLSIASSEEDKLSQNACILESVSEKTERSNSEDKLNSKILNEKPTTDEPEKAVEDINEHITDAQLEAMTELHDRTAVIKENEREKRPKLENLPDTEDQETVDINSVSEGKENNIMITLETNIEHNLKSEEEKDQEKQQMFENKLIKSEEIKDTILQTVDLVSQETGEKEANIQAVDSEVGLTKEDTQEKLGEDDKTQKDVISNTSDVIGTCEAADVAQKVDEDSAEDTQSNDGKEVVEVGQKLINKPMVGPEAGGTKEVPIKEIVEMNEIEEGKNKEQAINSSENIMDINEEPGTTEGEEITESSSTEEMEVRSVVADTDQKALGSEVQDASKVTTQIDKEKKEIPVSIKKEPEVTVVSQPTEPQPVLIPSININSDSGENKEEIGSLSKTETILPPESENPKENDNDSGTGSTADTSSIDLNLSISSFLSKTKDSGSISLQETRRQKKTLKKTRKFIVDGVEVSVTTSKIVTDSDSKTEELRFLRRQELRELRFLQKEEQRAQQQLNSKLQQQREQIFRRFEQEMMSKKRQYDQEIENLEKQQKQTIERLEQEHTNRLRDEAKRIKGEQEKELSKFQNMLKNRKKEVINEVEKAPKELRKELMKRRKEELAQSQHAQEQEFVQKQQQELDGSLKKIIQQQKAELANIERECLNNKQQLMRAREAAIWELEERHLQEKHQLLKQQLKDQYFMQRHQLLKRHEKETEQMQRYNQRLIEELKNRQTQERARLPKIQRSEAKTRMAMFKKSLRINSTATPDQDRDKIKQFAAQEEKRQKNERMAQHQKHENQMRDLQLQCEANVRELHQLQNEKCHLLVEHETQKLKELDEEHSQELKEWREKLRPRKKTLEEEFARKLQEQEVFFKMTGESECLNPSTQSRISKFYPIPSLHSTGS
# T8 sequence (Q9HCP0 whole entry): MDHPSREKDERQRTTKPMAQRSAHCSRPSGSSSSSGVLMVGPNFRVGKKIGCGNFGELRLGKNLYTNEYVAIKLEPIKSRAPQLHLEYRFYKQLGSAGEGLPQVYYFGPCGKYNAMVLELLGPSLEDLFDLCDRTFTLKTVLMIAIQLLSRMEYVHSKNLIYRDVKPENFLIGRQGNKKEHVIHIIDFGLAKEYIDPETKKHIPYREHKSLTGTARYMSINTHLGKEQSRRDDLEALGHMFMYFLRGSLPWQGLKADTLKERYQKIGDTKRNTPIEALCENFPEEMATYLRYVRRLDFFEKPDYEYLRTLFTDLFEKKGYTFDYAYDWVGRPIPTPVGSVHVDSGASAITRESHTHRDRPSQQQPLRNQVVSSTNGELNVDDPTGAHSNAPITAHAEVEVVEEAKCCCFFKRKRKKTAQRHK
compound,measurement,setting,value
"O=C1Nc2c(cc([N+](=O)[O-])c3c2CCCC3)C1=NO [Compound 5d, 3-(Hydroxyimino)-5-nitro-1,3,6,7,8,9-hexahydro-2H-benzo[g]indol-2-one]",inhibition at 10 µM,AAK1,91.8%
same,inhibition at 10 µM,ABL1 (E255K)-P,57%
same,inhibition at 10 µM,ACVR2A,10%
same,inhibition at 10 µM,ALK (C1156Y),43%
same,inhibition at 10 µM,BLK,23%
same,inhibition at 10 µM,CAMK2B,70%
same,inhibition at 10 µM,CAMKK1,9%
same,inhibition at 10 µM,CSNK1G1,84%
same,inhibition at 10 µM,CSNK1G3,83%
same,inhibition at 10 µM,DDR1,0%
same,inhibition at 10 µM,DRAK1,76%
same,inhibition at 10 µM,EGFR (G719S),13%
same,inhibition at 10 µM,EPHB6,80%
same,inhibition at 10 µM,ERK8,50%
same,inhibition at 10 µM,FAK,19%
same,inhibition at 10 µM,FLT3 (D835H),35%
same,inhibition at 10 µM,GRK3,77%
same,inhibition at 10 µM,GRK7,43%
same,inhibition at 10 µM,IKK-ε,23%
same,inhibition at 10 µM,JAK3 (JH1domain-cat.),49%
same,inhibition at 10 µM,MAP3K19,95.8%
same,inhibition at 10 µM,MAP4K5,12%
same,inhibition at 10 µM,MINK,70%
same,inhibition at 10 µM,MST1,32%
same,inhibition at 10 µM,OSR1,25%
same,inhibition at 10 µM,PIP5K2C,40%
same,inhibition at 10 µM,PLK3,51%
same,inhibition at 10 µM,PRKCD,10%
same,inhibition at 10 µM,PRKG1,11%
same,inhibition at 10 µM,RIPK5,17%
same,inhibition at 10 µM,S6K1,51%
same,inhibition at 10 µM,SIK,9%
same,inhibition at 10 µM,SIK2,7%
same,inhibition at 10 µM,SLK,63%
same,inhibition at 10 µM,SRPK3,66%
same,inhibition at 10 µM,SYK,20%
same,inhibition at 10 µM,TAOK1,62%
same,inhibition at 10 µM,TRKB,34%
same,inhibition at 10 µM,TRPM6,8%
same,inhibition at 10 µM,p38-σ,7%
